In patent publication US9956319B2, “Compositions useful as antibiofilm or antimicrobial agents and methods using same” (BAYLOR COLLEGE OF MEDICINE, priority 2012, dated 2018):

How the values were obtained:
[1] = system: vancomycin-resistant Enterococcus (VRE); assay: Zones of inhibition of impregnated catheter segments, modified Kirby-Bauer method; format: cell-based
Experimental: To evaluate the antimicrobial activity of central venous catheters treated with α-lipoic acid or its combination with gentamicin, segments of 7 French triple lumen polyurethane central venous catheters were impregnated with α-lipoic acid, gentamicin, or the combination of lipoic acid and gentamicin using the same patented method described in Example 1 with 50 mg/ml of each agent (for the final solution volume). After the impregnation process and drying, zones of inhibition were performed on one-centimeter segments according to a modified Kirby-Bauer method against MSSE, MRSE, MRSA, K. pneumoniae, E. coli, P. mirabilis, Pseudomonas aeruginosa, and Candida albicans. Each segment was half embedded in the center of a Muller-Hinton agar plate that had been previously inoculated with an individual organism. Prior to placing the catheter segments in agar, each organism was grown for 18 hours in TSB to a concentration of 0.5 McFarland (10^8 cfu/ml). A cotton swab was placed in the suspension and streaked across the surface of the Muller-Hinton agar plate to cover the entire plate. All plates were placed in a 37° C. incubator for 24 hours. Zones were measured in mm after the incubation period (Table 2).
(§1) To evaluate the antimicrobial activity of central venous catheters treated with lipoamide or its combination with levofloxacin, segments of 7 French triple lumen polyurethane central venous catheters were impregnated with levofloxacin or the combinations of lipoamide and levofloxacin using the same patented method described in Example 1 (U.S. Pat. No. 6,589,591) with 100 mg/ml (final solution volume) of each agent. […] Zones of inhibition were measured in mm after the incubation period (Table 4).
as §1, with “doxycycline,” for “levofloxacin,”, “doxycycline” for “levofloxacin”, “5).” for “4).”
as §1, with “dihydrolipoic acid,” for “lipoamide or its combination with levofloxacin,”, “dihydrolipoic acid” for “levofloxacin or the combinations of lipoamide and levofloxacin”, “25” for “100”, “the” for “each”, “6).” for “4).”

Klebsiella pneumoniae = assay: Bacterial colony counts extracted from impregnated central venous catheters after exposure to bacteria; format: cell-based; details: catheter impregnated with 25 mg/ml, 10^5 cfu/ml suspension in TSB, 37° C., 24 hours
Experimental: To evaluate the anticolonization/antimicrobial activity of central venous catheters treated with dihydrolipoic acid, segments of 7 French triple lumen polyurethane central venous catheters were impregnated with dihydrolipoic acid using the same patented method described in Example 1 (U.S. Pat. No. 6,589,591) with 25 mg/ml (final solution volume) of the agent. After the impregnation process and drying, Catheter segments were then placed in the impregnating solution at 55° C. with agitation for 1 hour in the dark. Catheter segments were then removed from the solution and dried under a fume hood overnight in the dark. Catheter segments were rinsed with deionized water the next day and let dry for another 18 hours in the dark. After the impregnation process and drying, one-centimeter segments of impregnated catheters were individually placed in 1 ml of 10^5 cfu/ml suspensions of MRSE, MRSA, or K. pneumoniae in trypticase soy broth (TSB) at 37° C. for 24 hours. One-centimeter segments of non-impregnated catheters were also incubated individually in each bacterial suspension at 37° C. for 24 hours as controls. […]
(§2) Aliquots of each suspension and subsequent dilutions were cultured quantitatively.

[2] = system: methicillin-sensitive Staphylococcus epidermidis (MSSE); assay: Bacterial colony counts extracted from impregnated central venous catheters after incubation in bacterial suspension; format: cell-based; details: catheter impregnated with 50 mg/ml, 10^5 cfu/ml suspension in TSB, 37° C., 24 hours
Experimental: (§3) In this example, segments of 7 French triple lumen polyurethane central venous catheters were impregnated with α-lipoic acid using the method described elsewhere (U.S. Pat. No. 6,589,591) and were subjected to zones of inhibition. Briefly, α-lipoic acid was dissolved in 88% formic acid (at a final solution concentration of 50 mg/ml). 85% ortho-Phosphoric acid and glycerol were then added to the solution at 79:8:13 (v/v/v) (formic acid:ortho-phosphoric acid:glycerol). After mixing the solution, 300 mg/ml of potassium chloride was added to the final solution and mixed.
(§4) Catheter segments were then placed in the impregnating solution at 55° C. with agitation for 1 hour in the dark. Catheter segments were then removed from the solution and dried under a fume hood overnight in the dark. Catheter segments were rinsed with deionized water the next day and let dry for another 18 hours in the dark. After the impregnation process and drying, one-centimeter segments of impregnated catheters were individually placed in 1 ml of 10^5 cfu/ml suspensions of methicillin-sensitive Staphylococcus epidermidis (MSSE), methicillin-resistant Staphylococcus epidermidis (MRSE), methicillin-resistant Staphylococcus aureus (MRSA), Klebsiella pneumoniae, Escherichia coli, or Proteus mirabilis in trypticase soy broth (TSB) at 37° C. for 24 hours. One-centimeter segments of non-impregnated catheters were also incubated individually in each bacterial suspension at 37° C. for 24 hours as controls. Catheter segments were removed from each bacterial suspension after this period, shaken to remove excess broth containing free-floating bacteria from their surfaces, placed in 1 ml of normal saline, sonicated for 5 minutes, and vortexed for 30 seconds.
as §2

Escherichia coli = assay: as above; format: cell-based; details: catheter impregnated with 50 mg/ml, 10^5 cfu/ml suspension in TSB, 37° C., 24 hours
Experimental: as §3, §4, §2

Klebsiella pneumoniae I = assay: as above; format: cell-based; details: catheter impregnated with 50 mg/ml, 10^5 cfu/ml suspension in TSB, 37° C., 24 hours
Experimental: as §3, §4, §2

Proteus mirabilis = assay: as above; format: cell-based; details: catheter impregnated with 50 mg/ml, 10^5 cfu/ml suspension in TSB, 37° C., 24 hours
Experimental: as §3, §4, §2

Klebsielle pneuminiae II = assay: as above; format: cell-based, Klebsiella pneumoniae; details: catheter impregnated with 50 mg/ml, 10^5 cfu/ml suspension in TSB, 37° C., 24 hours
Experimental: as §3
Catheter segments were then placed in the impregnating solution at 55° C. with agitation for 1 hour in the dark. Catheter segments were then removed from the solution and dried under a fume hood overnight in the dark. Catheter segments were rinsed with deionized water the next day and let dry for another 18 hours in the dark. […]
as §2

For `O=C(O)CCCCC(S)CCS` (centres unmarked) [Dihydrolipoic acid, 6,8-dimercaptooctanoic acid], the Zones of inhibition ([1]; catheter impregnated with 25 mg/ml of the agent) was 14 mm and the “Mean bacterial colony counts extracted from catheter” value (Klebsiella pneumoniae) was 280000.

`NC(=O)CCCCC1CCSS1` (centres unmarked) [Lipoamide, lipoamide] gave a zone of inhibition at 100000 µg/mL ([1]; Enterococcus, catheter impregnated with 100 mg/ml of each agent) of 4 mm.

`O=C(O)CCCCC1CCSS1` (centres unmarked) [Lipoic acid, 1,2-dithiolane-3-pentanoic acid] was tested, and the “Bacterial colony counts extracted from central venous catheters” value [2] was 10, the “Bacterial colony counts extracted from central venous catheters” value (Escherichia coli) was 1.4 × 10^4 and the “Bacterial colony counts extracted from central venous catheters” value (Klebsiella pneumoniae I) was 1.1 × 10^6. For the same molecule, the “Bacterial colony counts extracted from central venous catheters” value (Proteus mirabilis) was 0 and the “Bacterial colony counts extracted from central venous catheters” value (Klebsielle pneuminiae II) was 9.0 × 10^3.
